Key:
[1] = system: C. parvum; assay: Inhibition of C. parvum proliferation; type: cell-based; settings: Cryptosporidium parvum; Table 4; read-out: Inhibit Parasite Prolif. (EC50, μM) C. parvum
[2] = system: T. gondii Type 1 RH strain tachyzoites; assay: T. gondii infection in mice; type: in vivo; settings: CF-1 mice, peritoneal lavage day 8
Text: 1×10^5 T. gondii Type 1 RH strain tachyzoites expressing YFP were inoculated i.p. into 4-5 wk old female CF-1 mice (n=4). […] On day 8, the mice were killed, and underwent peritoneal lavage. T. gondii were enumerated via fluorescent microscopy and plotted, per mouse.

[3] = system: C. parvum Iowa strain; assay: C. parvum infection in mice (beige/SCID mouse model); settings: oral gavage 20 mg/kg 8 AM and 40 mg/kg 5 PM, days 5-14 after infection; each time point except Days 0 and 3; p≦0.05
[4] = biological target: Prkcn (Homo sapiens (Human), UniProt O94806); assay: Kinase panel selectivity: Prkcn; type: biochemical
Sequence of Prkcn (O94806 whole entry, looked up, species assumed): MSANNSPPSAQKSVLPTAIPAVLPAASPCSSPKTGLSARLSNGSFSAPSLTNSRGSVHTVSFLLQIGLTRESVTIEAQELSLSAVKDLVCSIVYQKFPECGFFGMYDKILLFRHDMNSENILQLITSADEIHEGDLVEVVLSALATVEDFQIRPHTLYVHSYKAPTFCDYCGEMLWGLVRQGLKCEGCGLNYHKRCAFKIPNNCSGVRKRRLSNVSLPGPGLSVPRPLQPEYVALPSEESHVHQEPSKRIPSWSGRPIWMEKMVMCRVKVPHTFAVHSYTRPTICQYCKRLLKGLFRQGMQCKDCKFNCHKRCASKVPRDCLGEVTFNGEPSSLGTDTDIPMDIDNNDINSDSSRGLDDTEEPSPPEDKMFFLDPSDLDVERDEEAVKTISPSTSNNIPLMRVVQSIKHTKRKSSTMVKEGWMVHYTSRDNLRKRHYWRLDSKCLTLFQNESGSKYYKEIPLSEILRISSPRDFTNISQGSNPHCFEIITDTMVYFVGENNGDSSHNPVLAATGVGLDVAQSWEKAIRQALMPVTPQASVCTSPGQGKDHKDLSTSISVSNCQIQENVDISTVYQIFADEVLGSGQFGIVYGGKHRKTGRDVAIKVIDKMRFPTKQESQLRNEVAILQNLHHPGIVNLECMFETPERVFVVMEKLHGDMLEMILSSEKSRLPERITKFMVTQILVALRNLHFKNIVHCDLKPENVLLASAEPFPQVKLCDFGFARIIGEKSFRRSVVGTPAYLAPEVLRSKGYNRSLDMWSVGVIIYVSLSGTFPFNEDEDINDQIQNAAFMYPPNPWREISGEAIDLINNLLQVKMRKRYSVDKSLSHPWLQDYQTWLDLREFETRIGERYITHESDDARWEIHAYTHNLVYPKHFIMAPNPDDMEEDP

[5] = system: 80 human protein kinases (hPKs); assay: AbbVie panel of 80 human protein kinases; type: biochemical; settings: at levels up to 3 μM; tested by AbbVie
[6] = system: 24 off-target liabilities (e.g. ion channels, G-protein receptors); assay: 24 off-target liability screen; settings: tested by AbbVie
[7] = Stability (comparison of compound 39 and compound 9)
[8] = Solubility at pH 6.5; type: physicochemical
[9] = biological target: Kdr (Homo sapiens (Human), UniProt P35968); assay: Kinase panel selectivity: Kdr; type: biochemical
Sequence of Kdr (P35968 20-1356, species assumed): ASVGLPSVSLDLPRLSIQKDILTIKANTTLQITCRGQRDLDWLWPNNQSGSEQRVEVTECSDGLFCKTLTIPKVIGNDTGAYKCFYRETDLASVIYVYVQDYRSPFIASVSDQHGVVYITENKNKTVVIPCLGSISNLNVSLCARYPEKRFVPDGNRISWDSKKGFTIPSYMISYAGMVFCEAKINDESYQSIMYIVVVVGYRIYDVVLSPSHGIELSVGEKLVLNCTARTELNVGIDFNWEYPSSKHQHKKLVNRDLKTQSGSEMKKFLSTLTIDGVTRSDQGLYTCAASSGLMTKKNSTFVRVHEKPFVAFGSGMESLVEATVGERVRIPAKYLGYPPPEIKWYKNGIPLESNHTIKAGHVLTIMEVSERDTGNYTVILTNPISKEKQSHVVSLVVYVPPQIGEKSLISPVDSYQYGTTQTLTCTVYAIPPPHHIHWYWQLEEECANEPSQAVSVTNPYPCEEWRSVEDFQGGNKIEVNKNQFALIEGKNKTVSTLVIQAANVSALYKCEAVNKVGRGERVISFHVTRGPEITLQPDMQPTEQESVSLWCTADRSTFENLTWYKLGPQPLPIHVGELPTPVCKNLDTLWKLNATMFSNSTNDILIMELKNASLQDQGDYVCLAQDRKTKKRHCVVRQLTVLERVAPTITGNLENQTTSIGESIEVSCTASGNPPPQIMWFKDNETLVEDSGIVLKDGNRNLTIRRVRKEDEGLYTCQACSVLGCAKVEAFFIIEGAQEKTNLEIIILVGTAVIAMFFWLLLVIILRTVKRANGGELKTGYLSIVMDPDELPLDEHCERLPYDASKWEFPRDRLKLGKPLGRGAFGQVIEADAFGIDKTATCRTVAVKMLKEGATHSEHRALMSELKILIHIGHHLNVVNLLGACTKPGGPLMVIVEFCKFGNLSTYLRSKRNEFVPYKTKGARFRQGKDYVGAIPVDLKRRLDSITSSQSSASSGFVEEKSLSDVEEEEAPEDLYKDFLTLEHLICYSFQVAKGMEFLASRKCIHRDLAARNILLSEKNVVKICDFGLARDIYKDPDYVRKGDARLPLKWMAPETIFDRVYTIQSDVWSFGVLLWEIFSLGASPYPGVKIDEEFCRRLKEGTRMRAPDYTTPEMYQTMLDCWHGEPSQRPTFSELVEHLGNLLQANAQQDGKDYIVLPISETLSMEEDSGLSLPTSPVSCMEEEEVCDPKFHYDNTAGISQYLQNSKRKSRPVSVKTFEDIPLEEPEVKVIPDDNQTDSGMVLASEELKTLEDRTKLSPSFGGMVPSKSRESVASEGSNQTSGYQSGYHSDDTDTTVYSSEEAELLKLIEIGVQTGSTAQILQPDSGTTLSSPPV

[10] = biological target: hERG (Homo sapiens (Human), UniProt Q12809); assay: biochemical; type: binding
Sequence of hERG (Q12809 whole entry): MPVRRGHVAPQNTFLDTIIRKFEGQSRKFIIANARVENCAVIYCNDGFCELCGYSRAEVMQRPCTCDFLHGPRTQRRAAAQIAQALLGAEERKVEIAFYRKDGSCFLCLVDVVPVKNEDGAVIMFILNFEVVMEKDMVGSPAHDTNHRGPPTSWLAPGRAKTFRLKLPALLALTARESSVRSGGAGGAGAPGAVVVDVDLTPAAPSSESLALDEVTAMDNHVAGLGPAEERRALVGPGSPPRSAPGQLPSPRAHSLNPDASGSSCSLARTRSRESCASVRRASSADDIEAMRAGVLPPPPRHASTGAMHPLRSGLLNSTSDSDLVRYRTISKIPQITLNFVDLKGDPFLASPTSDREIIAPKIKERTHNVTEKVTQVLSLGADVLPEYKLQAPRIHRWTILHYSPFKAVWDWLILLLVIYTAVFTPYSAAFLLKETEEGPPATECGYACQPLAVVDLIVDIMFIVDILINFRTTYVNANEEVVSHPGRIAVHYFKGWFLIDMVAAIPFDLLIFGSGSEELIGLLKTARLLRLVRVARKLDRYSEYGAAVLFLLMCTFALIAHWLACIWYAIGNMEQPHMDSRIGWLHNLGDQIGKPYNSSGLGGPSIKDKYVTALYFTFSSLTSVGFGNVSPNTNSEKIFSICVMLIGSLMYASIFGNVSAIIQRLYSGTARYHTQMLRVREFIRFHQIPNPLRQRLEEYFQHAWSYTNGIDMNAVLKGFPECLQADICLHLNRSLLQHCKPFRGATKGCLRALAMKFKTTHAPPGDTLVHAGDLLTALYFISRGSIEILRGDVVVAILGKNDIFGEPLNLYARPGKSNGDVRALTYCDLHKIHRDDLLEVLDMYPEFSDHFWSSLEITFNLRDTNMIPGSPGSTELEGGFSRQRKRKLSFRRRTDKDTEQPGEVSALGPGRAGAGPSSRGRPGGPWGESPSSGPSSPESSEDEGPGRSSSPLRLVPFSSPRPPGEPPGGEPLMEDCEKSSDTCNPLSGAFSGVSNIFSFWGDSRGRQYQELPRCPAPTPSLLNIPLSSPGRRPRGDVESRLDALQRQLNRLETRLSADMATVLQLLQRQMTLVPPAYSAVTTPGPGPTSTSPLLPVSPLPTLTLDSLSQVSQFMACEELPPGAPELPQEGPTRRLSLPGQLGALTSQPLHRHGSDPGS

[11] = Cell toxicity in HepG2; type: cell-based; settings: human, HepG2 cells (hepatocellular carcinoma); Table 4
Description: All compounds were assayed for inhibition of TgCDPK1 and CpCDPK1 and on the small-gatekeeper (Thr) human kinases, Src and Abl. Human cell toxicity was evaluated in two human cell lines, HepG2 (hepatocellular carcinoma) and CRL8155 (lymphoblast, spleen). hERG inhibition has been associated with long Q-T syndrome (cardiotoxicity), and the compounds were evaluated for hERG inhibitory activity.

[12] = system: P-gp; assay: Diffusion across the MDCK-PGP monolayer; type: in vitro ADME; settings: dog, MDCK-MDR1; predicts CNS penetration
[13] = Oral availability (comparison of compound 39 and compound 9); type: in vivo; settings: compared with compound 9 (1294)
[14] = Cytotoxicity against CRL8155 cell line; type: cell-based; settings: human, CRL8155 cells (lymphoblast, spleen)

With `CCOc1ccc2cc(-c3nn(C(C)(C)C)c(N)c3C(N)=O)cnc2c1` [Compound 39, 5-amino-1-(tert-butyl)-3-(7-ethoxyquinolin-3-yl)-1H-pyrazole-4-carboxamide] the EC50 [1] was 0.05 µM, the “mean parasite burden decreased” value ([2]; oral gavage 5/10 mg/kg [AM/PM] for 5 d) was 69% and the “mean parasite burden decreased” value ([2]; oral gavage 20/40 mg/kg [AM/PM] for 5 d) was 93%. The “oocysts shed in mouse stool, treated vs vehicle” value [3] was “the difference was significant”, the IC50 [4] was 1.11 µM and the Ki [4] was 0.427 µM. For the same compound, the “inhibition of human protein kinases (panel of 80 hPKs)” value [5] was “No hPKs were inhibited”, the “signal in 24 off-target liability screen” value [6] was “no signal was detected” and the “stability (in words)” value [7] was “good stability”. The “solubility (in words)” value [8] was “good solubility”, the IC50 [9] was 2.46 µM and the Ki [9] was 0.569 µM. For the same compound, the “hERG inhibitory activity (in words)” value [10] was “no hERG inhibitory activity”, the EC50 [11] was greater than 40 µM and the Papp [12] was 56.3 ×10⁻⁶ cm/s. The “oral availability (in words)” value [13] was “higher oral availability”, the EC50 ([14]; Table 2, read-out: Cytotoxicity (CRL8155) EC50) was greater than 30 µM and the EC50 ([14]; Table 3, read-out: Cytotoxicity (CRL8155) EC50) was greater than 30 µM. For the same compound, the EC50 ([14]; Table 4, read-out: Cell toxicity (EC50, μM) CRL 8155) was greater than 40 µM.

From US9518026B2, “5-aminopyrazole-4-carboxamide inhibitors of CDPK1 from T. gondii and C. parvum” (UNIVERSITY OF WASHINGTON THROUGH ITS CENTER FOR …, priority 2013, dated 2016)
